Format in all cases: physicochemical
Data set [1] is described as follows: Measurement of photostability: irradiation of highly diluted ethanol solution, analysis by UV-spectroscopy. To be noted: first order kinetic model; diluted solution in ethanol; half-life under COLIPA standard sun irradiation. Here is the method:
The method used for assessment of photostability is based on the irradiation of a highly diluted solution of the UV-filter. The analysis after certain doses of irradiation was performed by UV-spectroscopy. The concentration of the UV-absorber in ethanol is adjusted to values between […], such that the absorbance of the solution in cuvette of 1 cm optical pathlength is equal or smaller than 0.2. The mutual protection of filter molecules can be excluded under such conditions.
Prior to irradiation of a sample the UVB-intensity at the sample position is measured with a UV-radiometer (RM-12, Dr. Grobel Electronic GmbH). […] Therefore the relationship of the reading of the RM-12 radiometer and the corresponding spectral output of the lamp is known, and one is able to determine the wavelength-resolved intensities by measuring the UVB-intensity. […]
For sample irradiation the highest possible intensity was used (4.5 mW/cm^2 UVB-intensity measured with the Macam 103 radiometer). […] After certain intervals of irradiation, the samples were analysed in a UV-spectrometer (Perkin Elmer, Lambda 16).
From the absorbance values at each dose of irradiation the concentration may be calculated using Lambert-Beer's law. […]

Data set [2] can be described thus: UV shielding properties: UV spectra in ethanol. The text has this:
The UV shielding properties of the bisbiphenyl triazine derivatives were investigated by measuring their UV spectra in ethanol. In the following table the investigated absorption maxima (λmax) together with the corresponding A^1%1cm values are listed.

Data set [3] in a line: UV spectrum in tetrahydrofurane (synthesis examples). Particulars: for ε: at λmax.
Data set [4] is described as follows: Measurement of solubility in Capric/Caprylic Triglyceride. Particulars: solvent Capric/Caprylic Triglyceride.

In data set [1], `CCO[Si](CCCOc1ccc(-c2nc(-c3ccc(-c4ccccc4)cc3)nc(-c3ccc(-c4ccccc4)cc3)n2)c(O)c1)(OCC)OCC` [S-8] returned a Half time of 342.2 h. For the same compound, in data set [2], the “Absorption maximum λmax” value was 320. In data set [3], this compound had a λmax of 320 nm and a ε of 75800 M⁻¹ cm⁻¹.
Regarding `CC[Si](CC)(CC)CCCOc1ccc(-c2nc(-c3ccc(-c4ccccc4)cc3)nc(-c3ccc(-c4ccccc4)cc3)n2)c(O)c1` [S-2], in data set [4], the “Solubility in Capric/Caprylic Triglyceride” value was 22.8 w-%. In addition, the Half time in data set [1] was 412.1 h. Moreover, the “Absorption maximum λmax” value in data set [2] worked out at 319. In data set [3], this compound yielded a λmax of 319 nm and a ε of 76300 M⁻¹ cm⁻¹.

The record behind these values is patent US8986662B2, “Use of silane and siloxane bis(biphenyl) triazine derivatives as UV absorbers” (BASF SE, priority 2010, dated 2015).
